Data set [1] is described as follows: In vitro redox-cycling phenol red/horseradish peroxidase reporter assay. Particulars: phenol red/HRP with DTT. The method, then: The in vitro redox-cycling capability of compounds was assessed by phenol red/horseradish peroxidase (HRP) assay by adaption of a previously described protocol. Briefly, stocks were prepared as follows: (1) DTT to a concentration of […] in PBS pH 7.4 buffer; (2) compound stocks in PBS pH 7.4 buffer to 3× the desired concentration by 1,000× dilution of DMSO stocks; (3) a stock of phenol red/HRP detection reagent containing 300 µg ml^−1 phenol red and 180 µg ml^−1 HRP enzyme in PBS pH 7.4 buffer; (4) a stock of 1 M NaOH in water; (5) a stock of 100 µM H2O2 in PBS prepared by addition of a 30% solution of H2O2 in water into 1,000 µl of PBS. Into each well of a 96-well clear flat-bottomed plate was then added 40 µl of compound stock in PBS followed by 40 µl of DTT stock, followed immediately by 40 µl of phenol red/HRP reagent. A positive control with 100 µM H2O2 added in place of compound was included. The plate was incubated in the dark at room temperature for 15 min. Following this, 20 µl of 1 M NaOH was added to each well to terminate the reaction. Absorbance was immediately measured at 610 nm (MiniMax i3x Imager, Molecular Devices). Absorbance of treated wells was normalized to control wells treated with PBS only (zero redox cycling).

The test system of a further data set is AML cell line HL-60. The experiment in a line: N-Acetyl cysteine cytotoxicity assay (trypan blue exclusion). The data set is classed as cell-based. Particulars: Homo sapiens, 96 h. As to the method:
For assays involving cytotoxicity of β-lapachone derivatives with and without antioxidant N-acetyl cysteine, HL-60 cells were plated into 24-well plates at a concentration of 2.5 × 10^5 cells ml^−1 in 450 µl. To each well was then added 25 µl of drug diluted in PBS to obtain the correct in-plate drug concentration, and 25 µl of PBS or a stock of N-acetyl cysteine at 12 mM in PBS. DMSO was maintained at an in-plate concentration of 0.1%. After 96 h incubation, toxicity was assessed by counting of live cells using the trypan blue exclusion method with a Countess II Automated Cell Counter (ThermoFisher Scientific) according to the manufacturer’s instructions. Cell viability was determined by dividing the average live cell number of treated wells by the average live cell number for control wells treated with 0.1% DMSO. Viability for wells treated with N-acetyl cysteine was assessed by comparison with control wells treated with N-acetyl cysteine and 0.1% DMSO. IC50 values were calculated using GraphPad Prism 8 software.

The target of another data set is T1, recombinant human 5-LO (Homo sapiens, UniProt P09917).
T1 construct: made in house; host or cells: Escherichia coli BL21
T1 sequence (P09917 1-674): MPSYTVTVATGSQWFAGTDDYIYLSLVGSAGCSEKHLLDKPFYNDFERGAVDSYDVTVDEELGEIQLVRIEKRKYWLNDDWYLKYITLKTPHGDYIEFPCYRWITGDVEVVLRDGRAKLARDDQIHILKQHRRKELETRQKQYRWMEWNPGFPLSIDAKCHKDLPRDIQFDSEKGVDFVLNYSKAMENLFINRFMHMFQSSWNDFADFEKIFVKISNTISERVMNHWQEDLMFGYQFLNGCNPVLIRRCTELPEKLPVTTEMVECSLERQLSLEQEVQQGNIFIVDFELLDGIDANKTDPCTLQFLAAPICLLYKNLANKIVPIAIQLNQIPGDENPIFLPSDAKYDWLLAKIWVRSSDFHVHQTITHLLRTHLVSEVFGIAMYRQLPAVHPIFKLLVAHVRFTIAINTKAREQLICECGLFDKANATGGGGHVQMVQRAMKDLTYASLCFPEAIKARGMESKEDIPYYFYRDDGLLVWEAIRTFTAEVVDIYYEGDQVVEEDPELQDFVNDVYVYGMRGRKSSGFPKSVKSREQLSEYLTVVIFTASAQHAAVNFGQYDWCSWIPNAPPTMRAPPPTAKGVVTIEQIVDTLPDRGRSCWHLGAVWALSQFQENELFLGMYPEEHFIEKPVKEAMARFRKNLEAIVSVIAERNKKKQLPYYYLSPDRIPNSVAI
The experiment in a line: Cell-free activity assay for recombinant human 5-LO. The data set is classed as biochemical. The method, then: Escherichia coli (BL21) was transformed with pT3-5-LO plasmid, and recombinant 5-LO protein was expressed at 30 °C as described. Cells were lysed in 50 mM triethanolamine/HCl pH 8.0, 5 mM EDTA, 1 mM phenylmethanesulfonyl fluoride, soybean trypsin inhibitor (60 μg ml^−1) and lysozyme (1 mg ml^−1), homogenized by sonication (3 × 15 s) and centrifuged at 40,000g for 20 min at 4 °C. The 40,000g supernatant (S40) was applied to an ATP–agarose column to partially purify 5-LO as described. Aliquots of semipurified 5-LO (0.5 μg) were diluted with 1 ml ice-cold PBS containing 1 mM EDTA. Samples were preincubated with the test compound or vehicle (0.1% DMSO) with or without 1 mM DTT, as indicated. After 10 min at 4 °C, samples were prewarmed for 30 s at 37 °C, and 2 mM CaCl2 plus 20 μM arachidonic acid was added to start the formation of 5-LO products. After 10 min, the reaction was stopped by addition of 1 volume of ice-cold methanol, and the formed 5-LO products were analysed by reverse-phase HPLC as described. 5-LO products include the all-trans isomers of LTB4 (trLTB4 isomers) and 5(S)-hydroperoxy-6-trans-8,11,14-cis-eicosatetraenoic acid and its corresponding alcohol 5(S)-hydroxy-6-trans-8,11,14-cis-eicosatetraenoic acid.

A further data set concerns ovine blood. The experiment in a line: Methaemoglobin analysis in ovine blood. Further details: species or system sheep. Particulars: for methaemoglobin formation: in vitro ovine blood model, 1 h incubation. As to the method:
Defibrinated Oxoid sheep’s blood (ThermoScientific) was diluted to a 5% v/v suspension in PBS pH 7.4. In a 96-well microtitre plate, 150 µl of blood suspension was added to 50 µl of serially diluted compound in PBS containing a 4× stock of each compound of interest. Serial dilution of compounds from DMSO stocks into PBS was performed to achieve an in-plate DMSO concentration of 0.1%. PBS buffer alone was used as a negative control. The plate was incubated for the specified time at 37 °C. The plate was then centrifuged at 3,500 r.p.m. for 5 min. The supernatant was removed and cells lysed by resuspension in 100 µl of a solution of Triton-X-100 (1%) in PBS. Following this, 80 µl of lysed cell contents were transferred to a second microtitre plate for ultraviolet measurement. Ultraviolet absorbance was measured immediately at 630 nm (MiniMax i3x Imager, Molecular Devices). Methaemoglobin increase was determined by A630−A6300/A6300×100 , where A630 is the absorbance of the test well at 630 nm, and A6300 is the absorbance of the negative control at 630 nm.

Setting [2] is: with ROS quencher NAC (600 µM), read-out: IC50, toxicity to HL-60 with NAC.
Where [3] appears, read: without NAC, read-out: IC50, toxicity to HL-60 without NAC.
[4] abbreviates: without DTT, read-out: IC50, 5-LO inhibition without DTT.

“Also recorded” adds a separate entry of the source. Like-named read-outs stand apart in the source and are kept apart here.

Regarding `CC1(C)CCC2=C(O1)c1ccccc1C(=O)C2=O` [Compound 1, β-lapachone, reference compound], the “concentration above which redox activity saturates the assay” value in data set [1] is on record as “above 10 μM”. In addition, the IC50 – broadly, the concentration that inhibits the measured activity by half – in the data set with AML cell line HL-60 (setting [2]) was 1.18 ± 0.18 µM; with AML cell line HL-60 (setting [3]) it was 0.47 ± 0.26 µM; at recombinant human 5-LO (setting [4]), greater than 30 µM. For the same compound, in the data set with ovine blood (after 1 h of incubation), the “lowest dose concentration with detectable methaemoglobin formation” value was determined as 10 µM. For the same compound, in the data set on ovine blood, the methaemoglobin formation result is recorded as “dose-dependent methaemoglobin formation”.
For the compound `CC1(C)CCC2=C(O1)c1ccccc1C(O)(Cc1ccccc1)C2=O` (stereo not drawn) [Compound 24, benzyl β-lapa-ketol], the “in vitro redox activity” value in data set [1] (up to 25 μM) is on record as “non-redox active; also recorded: no measurable redox activity”. For the same compound, the IC50 with AML cell line HL-60 (setting [2]) is 10.5 ± 0.9 µM; in the data set on AML cell line HL-60 (setting [3]), 13.6 ± 1.3 µM; at recombinant human 5-LO (with DTT (1 mM), read-out: IC50, 5-LO inhibition with DTT), 10.4 ± 4.1 µM; at recombinant human 5-LO (setting [4]), 8 ± 2.5 µM. In addition, the methaemoglobin formation result with ovine blood was “did not occur”.

The values are drawn from article PMC9252919, “Controlled masking and targeted release of redox-cycling ortho-quinones via a C–C bond-cleaving 1,6-elimination” (Nature Chemistry, 2022).
